Results on 18 molecules are retold here after ChEMBL document CHEMBL4152292, “Rational design of carbamate-based dual binding site and central AChE inhibitors by a "biooxidisable" prodrug approach: Synthesis, in vitro evaluation and docking studies” (Eur J Med Chem, 2018).

For series [1], the target named is T1, Acetylcholinesterase (Homo sapiens, UniProt P22303). In words: Inhibition of human erythrocytes AChE using acetylthiocholine iodide as substrate preincubated for 5 mins followed by substrate addition measured every min for 10 mins by Ellman's method. On the technique in general: In Ellman's method for cholinesterases, released thiocholine reacts with DTNB.

Series [2] addresses Amyloid-beta precursor protein (Homo sapiens) (UniProt P05067). In words: Inhibition of self-induced aggregation of amyloid beta (1 to 42 residues) (unknown origin) at 10 uM measured every 5 mins by Thioflavin T dye based fluorescence assay relative to control.
Series [3] addresses T1, Acetylcholinesterase. In words: Displacement of propidium iodide from PAS of human AChE after 6 hrs by fluorescence assay.
The target in series [4] is T2, Acetylcholinesterase (Bos taurus, UniProt P23795).
T2 sequence (P23795 whole entry): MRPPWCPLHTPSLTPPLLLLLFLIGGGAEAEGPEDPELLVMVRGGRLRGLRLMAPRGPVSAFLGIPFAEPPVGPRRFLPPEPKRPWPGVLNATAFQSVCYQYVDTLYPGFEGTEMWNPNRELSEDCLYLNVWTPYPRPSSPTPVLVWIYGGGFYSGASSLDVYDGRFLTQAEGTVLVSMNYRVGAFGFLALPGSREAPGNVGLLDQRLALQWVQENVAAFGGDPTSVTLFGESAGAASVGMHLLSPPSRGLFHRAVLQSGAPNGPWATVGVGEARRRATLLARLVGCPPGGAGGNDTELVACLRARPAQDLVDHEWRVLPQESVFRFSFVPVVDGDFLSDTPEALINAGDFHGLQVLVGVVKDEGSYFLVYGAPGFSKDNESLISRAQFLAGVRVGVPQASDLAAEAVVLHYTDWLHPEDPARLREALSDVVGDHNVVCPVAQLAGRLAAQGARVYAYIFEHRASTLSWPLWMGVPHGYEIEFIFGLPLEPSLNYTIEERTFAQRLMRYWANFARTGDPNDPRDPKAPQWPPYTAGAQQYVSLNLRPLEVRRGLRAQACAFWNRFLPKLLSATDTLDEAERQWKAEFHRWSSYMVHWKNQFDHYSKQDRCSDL
In words: Inhibition of bovine erythrocytes AChE using acetylthiocholine iodide as substrate by Ellman's method.

Series [5] can be described thus: Apparent permeability from apical to basolateral side in human Caco2 cells assessed as drug recovery at 10 uM at pH 7.4 measured after 60 mins by HPLC-MS/MS method. It is filed as ADME, cell-based. The settings on record: Caco-2, pH 7.4, read-out: Drug recovery.
A short description of series [6]: Apparent permeability from apical to basolateral side in human Caco2 cells at 10 uM at pH 7.4 measured after 60 mins by HPLC-MS/MS method. It is filed as ADME, cell-based. The settings on record: Caco-2, pH 7.4. (In general: Passage across Caco-2 layers is used to estimate intestinal permeability.)
Series [7] concerns the target T1, Acetylcholinesterase. In words: Inhibition of human erythrocytes AChE at 10^-5 M using acetylthiocholine iodide as substrate preincubated for 5 mins followed by substrate addition measured every min for 10 mins by Ellman's method.

T1 sequence (P22303 whole entry): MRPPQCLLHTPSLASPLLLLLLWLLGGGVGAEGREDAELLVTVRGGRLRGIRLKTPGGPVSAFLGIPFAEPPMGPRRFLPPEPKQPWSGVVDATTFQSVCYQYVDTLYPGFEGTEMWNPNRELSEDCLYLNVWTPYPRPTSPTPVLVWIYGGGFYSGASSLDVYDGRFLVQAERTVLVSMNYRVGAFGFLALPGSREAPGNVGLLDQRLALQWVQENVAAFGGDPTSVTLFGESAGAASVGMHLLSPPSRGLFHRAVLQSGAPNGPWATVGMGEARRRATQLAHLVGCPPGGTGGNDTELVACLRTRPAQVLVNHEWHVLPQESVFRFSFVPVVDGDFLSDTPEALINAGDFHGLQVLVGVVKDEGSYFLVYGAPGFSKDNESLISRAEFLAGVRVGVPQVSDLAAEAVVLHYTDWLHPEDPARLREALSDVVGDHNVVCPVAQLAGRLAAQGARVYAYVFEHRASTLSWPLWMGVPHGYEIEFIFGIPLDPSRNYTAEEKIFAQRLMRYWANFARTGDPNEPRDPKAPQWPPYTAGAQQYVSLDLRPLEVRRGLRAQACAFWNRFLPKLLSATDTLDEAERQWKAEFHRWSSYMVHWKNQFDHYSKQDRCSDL
Amyloid-beta precursor protein (Homo sapiens), sequence (P05067 whole entry, the tested form may be a part): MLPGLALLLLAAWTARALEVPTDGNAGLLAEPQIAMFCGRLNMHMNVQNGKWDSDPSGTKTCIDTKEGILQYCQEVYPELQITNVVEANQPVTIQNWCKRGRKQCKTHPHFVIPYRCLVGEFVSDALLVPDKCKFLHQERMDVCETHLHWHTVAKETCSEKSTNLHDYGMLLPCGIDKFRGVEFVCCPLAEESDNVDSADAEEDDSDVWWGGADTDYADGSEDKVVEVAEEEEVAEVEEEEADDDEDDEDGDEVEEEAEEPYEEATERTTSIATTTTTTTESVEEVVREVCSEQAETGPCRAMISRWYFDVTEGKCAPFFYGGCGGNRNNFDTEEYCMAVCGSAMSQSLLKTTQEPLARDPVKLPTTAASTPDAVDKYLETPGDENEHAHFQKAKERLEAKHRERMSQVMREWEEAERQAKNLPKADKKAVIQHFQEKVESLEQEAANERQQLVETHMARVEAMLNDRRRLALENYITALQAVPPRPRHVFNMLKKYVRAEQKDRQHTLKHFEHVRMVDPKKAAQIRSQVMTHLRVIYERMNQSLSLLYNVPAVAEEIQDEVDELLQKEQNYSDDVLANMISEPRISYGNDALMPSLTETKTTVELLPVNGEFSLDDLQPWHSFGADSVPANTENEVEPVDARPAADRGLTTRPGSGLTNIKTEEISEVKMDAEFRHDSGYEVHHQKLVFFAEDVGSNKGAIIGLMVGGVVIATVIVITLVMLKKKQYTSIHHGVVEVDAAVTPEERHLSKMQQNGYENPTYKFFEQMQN

Broadly, the IC50 is the midpoint of a concentration-inhibition curve. Higher therefore signals lower potency. On Acetylcholinesterase [1], `COCCNC(=O)c1cc2c(OC(=O)N(C)C)cccc2[n+](C)c1` showed a concentration for half-maximal inhibition (IC50) of 20 nM.

As to `CC(C)NC(=O)c1cc2c(OC(=O)N(C)C)cccc2[n+](C)c1`, on Acetylcholinesterase [1], half-maximal inhibition (IC50) required 58 nM. On the same count and under the same terms, for `CN(C)C(=O)Oc1cccc2c1cc(C(=O)Nc1ccccc1)c[n+]2C` the value was 30 nM. Same read-out and setting: for `Cc1c(C(=O)N(C)C)cc2c(OC(=O)N(C)C)cccc2[n+]1C` the value was more than 10000 nM. Same read-out and setting: as for `CN(C)C(=O)Oc1cccc2c1cc(C(=O)NC1CCCCC1)c[n+]2C`, the figure is 20 nM; as for `Cc1c(C(=O)N(C)C)c[n+](C)c2cccc(OC(=O)N(C)C)c12`, more than 10000 nM. As usually defined, the inhibition is the change of the read-out against control, counted positive when it falls. Lower therefore signals little suppression. As for `CN(C)C(=O)Oc1cccc2c1cc(C(=O)NCCOCCOCCN1C(=O)c3ccccc3C1=O)c[n+]2C`, the inhibition in series [2] came out at 14%. In addition, the Activity at Acetylcholinesterase [3] was found to be 20%. Also, the IC50 on Acetylcholinesterase [1] and against Acetylcholinesterase [4] was 6 nM throughout.

`CN(C)C(=O)Oc1cccc2c1cc(C(=O)NCCOCCO)c[n+]2C`: at Acetylcholinesterase [1], the IC50 came to 37 nM. The same measure, in the same setting: as for `CC[n+]1cc(C(=O)NC)cc2c(OC(=O)N(C)C)cccc21`, the figure is 314 nM; as for `CNC(=O)c1cc2c(OC(=O)N(C)C)cccc2[n+](Cc2ccccc2)c1`, 1160 nM.

For `CN(C)C(=O)Oc1cccc2c1cc(C(=O)N(C)C)c[n+]2C`, on Acetylcholinesterase [1], the IC50 is 154 nM.

On Acetylcholinesterase [1], `CCN(C)C(=O)Oc1cccc2c1cc(C(=O)NC(C)C)c[n+]2C` returned an IC50 of more than 10000 nM. Same read-out and setting: for `Cc1c(C(=O)N(C)C)c(C)[n+](C)c2cccc(OC(=O)N(C)C)c12` the value was more than 10000 nM; for `CNC(=O)c1cc2c(OC(=O)N(C)C)cccc2[n+](C)c1`, 77 nM. For orientation: Papp A→B means the apparent permeability from the apical to the basolateral side of a cell layer. As for `CN(C)C(=O)Oc1cccc2c1CC(C(=O)NCCOCCOCCN1C(=O)c3ccccc3C1=O)=CN2C`, in series [5], the recovery at 1 h, 10 µM stood at 91%. For the same molecule, the IC50 against Acetylcholinesterase [1] is more than 10000 nM. For the same molecule, the Papp A→B at 1 h, 10 µM in series [6] amounted to 11.1 ×10⁻⁶ cm/s.

On Acetylcholinesterase [1], `COC(=O)CNC(=O)c1cc2c(OC(=O)N(C)C)cccc2[n+](C)c1` gave an IC50 of 93 nM. At Acetylcholinesterase [7], `C[n+]1cc(C(=O)NCCOCCOCCN2C(=O)c3ccccc3C2=O)cc2c(O)cccc21` returned an inhibition of 35%. At Acetylcholinesterase [1], this molecule showed an IC50 of more than 10000 nM. At Acetylcholinesterase [1], `CC(C)NC(=O)c1cc2c(OC(=O)N3CCCC3)cccc2[n+](C)c1` displayed an IC50 of more than 10000 nM.
